Test [1] has as its system OVCA cell lines (A2780S, A2780CP, A2008, C13). Description: CellTiter-96 MTS proliferation assay quantifying cisplatin-resistance after serial cisplatin treatment. It is filed as cell-based. To be noted: cells after serial in vitro cisplatin-treatment/expansion cycles vs cells prior to serial cisplatin treatment. The text has this: FIGS. 3(A)-(D) are a series of graphs showing BAD-protein phosphorylation is associated with platinum resistance. Cisplatin EC50 so results and percent expression of phosphorylated-BAD at serine-155 (P-BAD155), non-phosphorylated BAD (NP-BAD155), total BAD, and PP2C (PPM1A) in (A) A2780S; (B) A2780CP; (C) A2008; and (D) C13 ovarian cancer cell lines measured by MTS and immunofluorescence, respectively.
Cell lines were induced for platinum resistance. […] Both cisplatin-resistance and genome-wide expression changes were measured serially in each cell line at baseline and after 3 and 6 cisplatin-treatment/expansion cycles. Cisplatin-resistance was quantified using CellTiter-96 MTS proliferation assays (Thermo Fisher Scientific Inc., Waltham, Mass.) and analyzed genome-wide expression using Affymetrix Human U133 Plus 2.0 GeneChips (Affymetrix, Inc., Santa Clara, Calif.) as previously described (Boren, et al., MicroRNAs and their target messenger RNAs associated with ovarian cancer response to chemotherapy. Gynecol Oncol 2009; 113:249-255; Bild, et al., Oncogenic pathway signatures in human cancers as a guide to targeted therapies. Nature 2006; 439:353-357) (Gene Expression Omnibus (GEO) accession number GSE23553).

Another test has as its system A2780S and A2780CP cells. Description: Percent apoptotic nuclei after cisplatin treatment of transfected cells. It is filed as cell-based. How it is done: FIGS. 4(A)-(D) is a composite figure showing modulation of BAD-protein phosphorylation status influences cisplatin sensitivity. OVCA cell lines (A) A2780S and (B) A2780CP were transfected with Flag vectors expressing wild-type BAD (WT) or BAD harboring serine (S) to alanine point mutations in serine-112, -136, or -155(S112A, S136A, S155A). These S to A phosphorylation site mutations prevent phosphorylation of the BAD protein. Transfected cells were treated with vehicle or 1 μM (A2780S) or 10 μM (A2780CP) cisplatin for 48 hours and evaluated for the presence of apoptotic nuclei. (C) Western blot showing depletion of PP2C and PKA by siRNA. Controls included a non-targeting siRNA (NT). GAPDH was used as a loading control. (D) Percent apoptotic nuclei in A2780S cells in the presence of 1 μM cisplatin after siRNA depletion of PKA and PP2C. Error bars indicate standard error of the mean.
Morphologic assessment of condensed chromatin and fragmented DNA quantified percent apoptotic nuclei. Cells were fixed in 4% paraformaldehyde, and nuclei were stained with bis-benzimide trihydrochloride (0.5 μg/ml; Molecular Probes) and quantified using fluorescence microscopy (Marchion, et al., Synergistic interaction between histone deacetylase and topoisomerase II inhibitors is mediated through topoisomerase IIbeta. Clin Cancer Res 2005; 11:8467-8475).
Cells were transfected with siRNA drawn against different BAD pathway proteins. RNA duplexes for PP2C/PPM1A (s10909 from ABI), cAMP-dependent protein kinase (PKA; 6406 from Cell Signaling Technology, Inc., Danvers, Mass.), and vectors containing mutated BAD (pFlag-600) were transfected using the Nucleofector transfection kit, with non-targeting Silencer negative control #2 siRNA (Applied Biosystems, Inc., Foster City, Calif.), according to manufacturer's protocols (Amaxa GmbH, Koeln, Del.). The role of pBAD (serine-155) in cisplatin sensitivity was further evaluated in A2780S cells by depletion of PKA and PP2C/PPM1A using siRNA.

Consider `N.N.[Cl][Pt][Cl]` [cisplatin, cis-diammine-dichloroplatinum], for which the “cisplatin EC50” value in test [1] is reported as “higher cisplatin EC50 values”. For the same compound, the cisplatin-induced apoptosis result in the test on A2780S and A2780CP cells (A2780S and A2780CP transfected with BAD[S136A], BAD[S155A] vs wild-type BAD, 1 μM (A2780S) or 10 μM (A2780CP) cisplatin, 48 hours) is “increased cisplatin-induced apoptosis”; with A2780S and A2780CP cells (A2780S, siRNA depletion of PKA vs non-targeting control siRNA, 1 μM cisplatin) it was “increased cisplatin-induced apoptosis”; in the test with A2780S and A2780CP cells (A2780S, siRNA depletion of PP2C/PPM1A, 1 μM cisplatin), “decreased cisplatin-induced apoptosis”. For the same compound, the cisplatin sensitivity entry in the test on A2780S and A2780CP cells (cells transfected with BAD[S112A], 1 μM (A2780S) or 10 μM (A2780CP) cisplatin, 48 hours) is reported as “no effect on cisplatin sensitivity”.

The values above are taken from patent US9528982B2, “Bad phosphorylation determines ovarian cancer chemo-sensitivity and patient survival” (H. Lee Moffitt Cancer Center and Research Institute, Inc., priority 2011, dated 2016).
